{"source": "patent US12544372B2", "about": "“Methods of treating rheumatoid arthritis, chronic spontaneous urticaria, and systemic lupus erythematosis using an inhibitor of Bruton's tyrosine kinase” (Genentech, Inc., priority 2019, dated 2026)", "assay_type_in_all_cases": "in vivo, human", "key": {"[1]": {"test_system": "patients with moderate to severe active rheumatoid arthritis", "test": "Phase II RA study, Cohort 2 (inadequate response or intolerance to TNF therapy): clinical efficacy", "conditions": "Cohort 2, 200 mg BID", "from_the_text": "A Two-Cohort Randomized Phase II, Double-Blind, Parallel Group Study in Patients with Active Rheumatoid Arthritis Evaluating the Efficacy and Safety of Fenebrutinib Compared with Placebo and Adalimumab in Patients with an Inadequate Response to Previous Methotrexate Therapy (Cohort 1) and Compared with Placebo in Patients with an Inadequate Response or Intolerance to Previous TNF Therapy (Cohort 2)\nThe study was a multicenter, Phase II, randomized, double-blind, placebo-controlled, active comparator (Cohort 1 only), parallel-group, dose-ranging study to evaluate the efficacy and safety of fenebrutinib in patients with moderate to severe active RA and an inadequate response to previous MTX therapy (Cohort 1) or MTX and TNF therapy who may have also had exposure to no more than one non-TNF inhibitor biologic (Cohort 2). Moderate to severe active RA was defined by ≥6 tender/painful joints on motion (68 joint count) and ≥6 swollen joints (66 joint count) at both screening and Day 1 (randomization), as well as a high sensitivity C-reactive protein (hsCRP)≥0. 400 mg/dL for Cohort 1 a hsCRP≥0.650 mg/dL for Cohort 2 at screening.\nThe study enrolled 578 patients. In Cohort 1, 480 MTX-IR patients were randomized to placebo (110 patients), ADA (111 patients), or one of three doses of fenebrutinib: 50 mg QD (40 patients), 150 mg QD (109 patients), or 200 mg BID (110 patients). In Cohort 2, 98 TNF-IR patients were randomized to placebo or 200 mg BID fenebrutinib. […]\nACR Assessments. The ACR's definition for calculating improvement in RA (ACR20) is calculated as a 20% improvement in tender and swollen joint counts and a 20% improvement in 3 of the 5 remaining ACR-core set measures: patient and physician global assessments, pain, disability, and an acute-phase reactant. Similarly, ACR50 and ACR70 are calculated with the respective percent improvements. […]"}, "IL-6": {"test_system": "IL-6", "test": "RA study biomarker: IL-6 (immunoassay)", "method": "Biomarkers were evaluated in serum or plasma samples at baseline and weeks 1, 4, and 12 in patients with available samples (cohort 1: n=438; cohort 2: n=86). The biomarkers evaluated in this assessment were chemokine [C-C motif] ligand 4 (CCL4), IL-6, and TNF-like cytokine 1A (TL1A). Total IgM, IgG, rheumatoid factor IgM autoantibody (RF), CCL4, TL1A, IL-6, and anti-CCP autoantibody (ACPA IgG) levels were analyzed with immunoassays. CD19^+ B cells and CD3^+ T cells were measured by flow cytometry. The proportion of patients achieving an ACR50 response at week 12 and the change in DAS28 score by week 12 were assessed relative to seropositivity (RF and/or ACPA positive at baseline) or baseline levels of RF in both cohorts. To select which biomarkers to evaluate in this trial, BTK-dependent myeloid biomarkers were identified using peripheral blood CD14^+ monocytes stimulated with immune-complexes in the presence or absence of a BTK inhibitor. In brief, the expression levels of genes in human monocytes were assayed under conditions of no stimulation; with human serum albumin immune complex stimulation; with stimulation and a low concentration of a BTK inhibitor with similar characteristics to fenebrutinib; or with stimulation and a high concentration of the BTK inhibitor. […] Genes annotated with cytokine activity were selected. The color bar represents normalized gene expression."}, "[2]": {"test_system": "IgG anti-FcERI autoantibodies", "test": "CSU study: serum IgG anti-FcERI autoantibodies (immunoassay)", "conditions": "Cohorts 1 and 2, serum, week 0 to 8", "method": "Some patient samples were also evaluated specifically for IgG anti-FcERI autoantibodies, and the level of those autoantibodies over time in fenebrutinib-administered patients compared to placebo-administered patients is shown in FIG. 37. Serum samples were collected at 0 and 8 weeks from patients receiving fenebrutinib (left) versus placebo (right), with samples sizes for each group shown. Prior to direct FcERI immunoassay, samples were split and pre-incubated with equimolar concentrations of rhFcERI or an unrelated control protein. Reactivity levels were determined relative to a mouse monoclonal antibody standard. IgG anti-FcERI was defined as the difference in reactivity between the split samples, and is shown in relative units (RU). The bold lines without markers represent the average of patients who were anti-FcERI positive at baseline. The dotted line represents the mean+3 standard deviations of healthy volunteer samples. Some sample lines for IgG anti-FcERI negative patients overlap at the lower end of the assay range. […] Without wishing to be bound by any theory, it is thought that anti-FcERI may be a driver of positive CU index test results, and are associated with refractory CSU."}, "[3]": {"test_system": "Plasmablast signature (IgJ, Mzb1, Txndc5)", "test": "SLE study biomarker: plasmablast signature (RNA from blood)", "method": "The following biomarkers were explored according to the biomarker objectives provided above in the Study Objectives. In Table 13, biomarkers are measured at baseline and subsequent timepoints during and after treatment. One set of biomarkers evaluated is the plasmablast signature. Plasmablasts are rapidly dividing, short-lived antibody secreting cells. While they represent a small proportion of B cells in the blood, they are responsible for a majority of antibody transcripts found in whole blood mRNA. The plasmablast signature comprises the biomarkers IgJ, Mzbl, and Txndc5. The gene expression of IgJ, Mzbl, and Txndc5 may be measured, for example, a polypeptide expression by evaluating the level of mRNA for said gene in a patient's blood relative to a reference level."}}, "note": "Marks after values point to notes of the source that are not given here."}
{"smiles": "C[C@H]1CN(C2COC2)CCN1c1ccc(Nc2cc(-c3ccnc(N4CCn5c(cc6c5CC(C)(C)C6)C4=O)c3CO)cn(C)c2=O)nc1", "note": "[fenebrutinib, (S)-2-(3′-(hydroxymethyl)-1-methyl-5-((5-(2-methyl-4-(oxetan-3-yl)piperazin-1-yl)pyridin-2-yl)amino)-6-oxo-1,6-dihydro-[3,4′-bipyridin]-2′-yl)-7,7-dimethyl-2,3,4,6,7,8-hexahydro-1H-cyclopenta[4,5]pyrrolo[1,2-a]pyrazin-1-one]", "values": [{"measurement": "DAS 28-3 (CRP) Adjusted Mean", "setting": "[1]; Week 12", "result": "−1.96"}, {"measurement": "ACR50 Weighted Difference vs Placebo", "setting": "[1]; Week 12 Day 84", "result": 13.85}, {"measurement": "DAS 28-3 (CRP) Difference (d)", "setting": "[1]; versus placebo, Week 12", "result": "−0.76"}, {"measurement": "IL-6 reduction relative to placebo", "setting": "IL-6; Cohort 1, by week 12", "result": "not observed"}, {"measurement": "IL-6 levels relative to placebo", "setting": "IL-6; cohort 2, 200 mg twice daily, by week 12", "result": "−50", "unit": "%"}, {"measurement": "IgG anti-FcERI autoantibodies", "setting": "[2]", "result": "significant reduction"}, {"measurement": "Plasmablast signature, Median Change from Baseline at Week 48", "setting": "[3]; 150 mg QD", "result": "−54.3", "unit": "%*"}, {"measurement": "Plasmablast signature, Median Change from Baseline at Week 48", "setting": "[3]; 200 mg BID", "result": "−51.7", "unit": "%*"}]}
